Patent publication US10004732B2 (Novartis AG, priority 2014, dated 2018)
Like-named read-outs stand apart in the source and are kept apart here.

How the values were obtained:
PI 3-kinase alpha [1] = molecular target: T1, PI 3-kinase alpha (Homo sapiens, UniProt P42336); experiment: Kinase Glo Luminescent Kinase Assay (Kglo), assay A; type: biochemical; details: read-out: Assay A PI3Kα IC50
Target sequence in this assay (P42336 whole entry): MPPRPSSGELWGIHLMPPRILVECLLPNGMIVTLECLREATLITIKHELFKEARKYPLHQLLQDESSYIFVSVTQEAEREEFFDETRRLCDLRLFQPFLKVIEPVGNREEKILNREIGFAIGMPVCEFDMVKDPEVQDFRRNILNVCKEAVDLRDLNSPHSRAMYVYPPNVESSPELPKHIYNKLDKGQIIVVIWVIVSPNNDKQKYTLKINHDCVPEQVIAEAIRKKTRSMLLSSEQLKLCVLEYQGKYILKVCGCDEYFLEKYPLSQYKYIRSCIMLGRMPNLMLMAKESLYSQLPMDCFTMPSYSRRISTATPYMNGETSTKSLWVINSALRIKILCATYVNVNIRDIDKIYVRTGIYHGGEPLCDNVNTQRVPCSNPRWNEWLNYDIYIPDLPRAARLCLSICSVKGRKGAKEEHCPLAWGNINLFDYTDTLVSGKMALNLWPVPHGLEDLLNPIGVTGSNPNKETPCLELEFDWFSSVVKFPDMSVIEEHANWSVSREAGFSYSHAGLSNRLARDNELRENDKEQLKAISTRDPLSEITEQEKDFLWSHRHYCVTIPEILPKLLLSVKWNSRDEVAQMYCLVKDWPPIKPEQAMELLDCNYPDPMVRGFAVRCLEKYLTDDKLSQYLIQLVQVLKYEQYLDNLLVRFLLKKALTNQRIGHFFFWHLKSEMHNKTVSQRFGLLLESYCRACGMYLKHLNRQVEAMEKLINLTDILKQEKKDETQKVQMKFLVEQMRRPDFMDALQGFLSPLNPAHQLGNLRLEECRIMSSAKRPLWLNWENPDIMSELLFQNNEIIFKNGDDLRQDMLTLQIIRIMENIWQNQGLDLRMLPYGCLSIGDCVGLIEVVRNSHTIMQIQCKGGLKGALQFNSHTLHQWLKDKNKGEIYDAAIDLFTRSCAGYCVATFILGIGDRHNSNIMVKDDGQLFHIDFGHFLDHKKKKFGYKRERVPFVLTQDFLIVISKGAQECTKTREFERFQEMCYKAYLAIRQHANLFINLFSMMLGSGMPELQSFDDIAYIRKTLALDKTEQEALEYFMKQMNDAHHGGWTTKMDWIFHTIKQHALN

PI 3-kinase beta [2] = molecular target: T2, PI 3-kinase beta (Homo sapiens, UniProt P42338); experiment: Kinase Glo Luminescent Kinase Assay (Kglo), assay B; type: biochemical; details: read-out: Assay B PI3Kβ IC50
Target sequence in this assay (P42338 whole entry): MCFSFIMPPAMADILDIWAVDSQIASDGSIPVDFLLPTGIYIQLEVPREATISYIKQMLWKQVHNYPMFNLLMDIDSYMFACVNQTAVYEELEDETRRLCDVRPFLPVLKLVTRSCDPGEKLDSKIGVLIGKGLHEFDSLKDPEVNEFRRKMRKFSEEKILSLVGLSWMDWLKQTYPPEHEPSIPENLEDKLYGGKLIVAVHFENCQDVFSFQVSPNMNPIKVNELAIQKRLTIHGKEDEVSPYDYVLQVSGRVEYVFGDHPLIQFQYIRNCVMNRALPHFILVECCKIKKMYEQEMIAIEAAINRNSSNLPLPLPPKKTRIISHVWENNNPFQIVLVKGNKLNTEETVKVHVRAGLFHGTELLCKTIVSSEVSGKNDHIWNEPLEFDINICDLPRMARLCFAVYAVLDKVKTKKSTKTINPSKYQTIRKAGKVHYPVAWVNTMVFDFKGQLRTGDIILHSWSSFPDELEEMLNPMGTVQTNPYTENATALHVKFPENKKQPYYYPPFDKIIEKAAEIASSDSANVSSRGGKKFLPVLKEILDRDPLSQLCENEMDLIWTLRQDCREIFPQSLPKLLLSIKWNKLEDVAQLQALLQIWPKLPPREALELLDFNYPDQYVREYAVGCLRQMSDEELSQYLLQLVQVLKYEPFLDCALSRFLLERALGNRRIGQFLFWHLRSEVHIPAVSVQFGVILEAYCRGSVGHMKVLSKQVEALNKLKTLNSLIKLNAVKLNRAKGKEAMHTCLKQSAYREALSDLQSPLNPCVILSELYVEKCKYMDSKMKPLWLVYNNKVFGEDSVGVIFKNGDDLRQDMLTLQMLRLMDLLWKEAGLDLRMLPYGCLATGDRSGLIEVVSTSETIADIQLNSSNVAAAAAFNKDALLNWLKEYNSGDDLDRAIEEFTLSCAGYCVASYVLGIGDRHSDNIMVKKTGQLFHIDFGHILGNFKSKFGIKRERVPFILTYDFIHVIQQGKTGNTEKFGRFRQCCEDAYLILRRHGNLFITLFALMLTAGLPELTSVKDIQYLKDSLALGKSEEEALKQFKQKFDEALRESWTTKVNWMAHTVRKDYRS
Target sequence in this assay (P27986 461-568 partner): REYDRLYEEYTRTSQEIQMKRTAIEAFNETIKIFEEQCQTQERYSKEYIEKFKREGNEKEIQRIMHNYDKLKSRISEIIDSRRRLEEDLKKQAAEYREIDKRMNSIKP
Protocol: (§1) Kinase Glo Luminescent Kinase Assay (Kglo) for Pb 3-Kinase Alpha (A), Pb 3-Kinase Beta (B), Vps34 (C), Pb 4-Kinase Beta (D)
(§2) The Kinase Glo Luminescent Kinase Assay (Promega, Madison/Wis., USA) is a homogeneous HTS method of measuring kinase activity by quantifying the amount of ATP remaining in solution following a kinase reaction.
(§3) L-α-phosphatidylinositol (PI), provided as 10 mg/ml solution in methanol, was transferred into a glass tube and dried under a nitrogen beam. It was then resuspended in 3% OctylGlucoside (1-0-n-octyl-beta-D-glucopyranoside) by vortexing and stored at 4° C. 5 μL of a mix of PI/OctylGlucoside with the PI 3-kinase alpha and PI 3-kinase beta subtypes, or Vps34 or PI 4-kinase beta were added. Kinase reactions were started by the addition of 5 μl of an ATP-mix containing in a final volume 10 μL 10 mM TRIS-HCl pH 7.5, 3 mM MgCl2, 50 mM NaCl, 0.05% CHAPS, 1 mM DTT and 1 μM ATP at room temperature.
(§4) All fits were performed with the program XLfit4 (ID Business Solutions, Guildford, UK).

Vps34 = Vps34 (Homo sapiens, UniProt Q8NEB9); experiment: Kinase Glo Luminescent Kinase Assay (Kglo), assay C; type: biochemical; details: read-out: Assay C VPS34 IC50
Protocol: as §1, §2, §3, §4

PI 4-kinase beta = PI 4-kinase beta (Homo sapiens, UniProt Q9UBF8); experiment: Kinase Glo Luminescent Kinase Assay (Kglo), assay D; type: biochemical; details: read-out: Assay D PI4Kβ IC50
Sequence of PI 4-kinase beta (Q9UBF8 whole entry): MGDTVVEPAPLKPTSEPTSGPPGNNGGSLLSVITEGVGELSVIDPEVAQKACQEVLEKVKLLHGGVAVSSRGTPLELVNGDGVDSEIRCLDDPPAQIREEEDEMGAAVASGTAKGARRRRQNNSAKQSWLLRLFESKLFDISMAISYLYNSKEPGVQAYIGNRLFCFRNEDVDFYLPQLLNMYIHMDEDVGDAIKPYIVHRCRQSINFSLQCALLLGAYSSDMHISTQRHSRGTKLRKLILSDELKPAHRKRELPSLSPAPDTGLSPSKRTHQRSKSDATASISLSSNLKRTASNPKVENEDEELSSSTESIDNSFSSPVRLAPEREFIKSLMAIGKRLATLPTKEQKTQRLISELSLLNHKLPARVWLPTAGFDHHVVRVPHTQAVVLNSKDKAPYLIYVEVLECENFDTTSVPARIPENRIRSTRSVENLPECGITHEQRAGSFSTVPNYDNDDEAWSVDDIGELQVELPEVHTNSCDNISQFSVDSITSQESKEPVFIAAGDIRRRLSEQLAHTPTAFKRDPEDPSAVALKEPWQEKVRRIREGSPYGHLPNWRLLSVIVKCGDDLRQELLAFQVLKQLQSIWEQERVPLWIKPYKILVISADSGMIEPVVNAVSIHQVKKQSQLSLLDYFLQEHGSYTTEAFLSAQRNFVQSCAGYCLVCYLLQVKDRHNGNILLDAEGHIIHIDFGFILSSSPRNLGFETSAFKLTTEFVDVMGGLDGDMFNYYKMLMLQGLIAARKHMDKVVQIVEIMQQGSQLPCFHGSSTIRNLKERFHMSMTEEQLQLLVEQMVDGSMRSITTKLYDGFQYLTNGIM

PI 3-kinase gamma = PI 3-kinase gamma (Homo sapiens, UniProt P48736); experiment: TR-FRET Adapta assay, assay E; type: biochemical; details: read-out: Assay E PI3Kγ IC50
Sequence of PI 3-kinase gamma (P48736 whole entry): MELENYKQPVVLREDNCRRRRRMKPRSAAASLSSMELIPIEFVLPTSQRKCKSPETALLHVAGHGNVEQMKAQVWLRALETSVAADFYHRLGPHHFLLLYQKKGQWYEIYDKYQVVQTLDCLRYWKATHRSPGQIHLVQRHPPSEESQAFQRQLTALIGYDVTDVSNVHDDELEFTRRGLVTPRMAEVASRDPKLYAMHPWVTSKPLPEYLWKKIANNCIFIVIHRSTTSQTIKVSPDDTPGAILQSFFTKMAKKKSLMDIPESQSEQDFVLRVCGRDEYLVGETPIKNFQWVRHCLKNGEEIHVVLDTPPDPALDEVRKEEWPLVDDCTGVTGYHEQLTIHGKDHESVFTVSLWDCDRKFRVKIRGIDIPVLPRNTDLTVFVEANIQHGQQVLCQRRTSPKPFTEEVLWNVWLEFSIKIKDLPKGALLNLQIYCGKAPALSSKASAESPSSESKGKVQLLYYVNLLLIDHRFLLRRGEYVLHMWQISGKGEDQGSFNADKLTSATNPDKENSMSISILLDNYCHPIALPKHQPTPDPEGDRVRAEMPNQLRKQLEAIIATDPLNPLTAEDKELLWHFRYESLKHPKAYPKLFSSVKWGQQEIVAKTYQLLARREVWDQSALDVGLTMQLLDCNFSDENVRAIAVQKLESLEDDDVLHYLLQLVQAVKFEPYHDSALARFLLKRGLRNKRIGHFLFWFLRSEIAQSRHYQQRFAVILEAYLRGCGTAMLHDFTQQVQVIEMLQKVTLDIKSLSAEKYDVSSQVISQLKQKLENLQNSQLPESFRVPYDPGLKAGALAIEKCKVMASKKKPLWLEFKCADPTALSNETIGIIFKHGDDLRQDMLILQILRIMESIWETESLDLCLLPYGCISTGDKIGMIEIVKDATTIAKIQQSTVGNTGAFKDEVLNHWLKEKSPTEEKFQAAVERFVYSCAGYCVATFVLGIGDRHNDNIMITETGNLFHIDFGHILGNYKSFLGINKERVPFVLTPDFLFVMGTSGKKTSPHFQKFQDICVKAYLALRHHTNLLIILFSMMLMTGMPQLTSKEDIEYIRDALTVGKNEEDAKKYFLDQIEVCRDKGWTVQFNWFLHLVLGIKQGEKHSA

mTOR = mTOR (Homo sapiens, UniProt P42345); experiment: Lanthascreen kinase binding assay, assay G; details: read-out: Assay G mTOR IC50
Protocol: Lanthascreen™ Kinase Binding Assay for mTOR (G)
Binding of an inhibitor to the kinase competes for binding with the tracer, resulting in a loss of FRET.
50 nL of compound dilutions were dispensed onto white 384-well small volume polystyrene plate.

PI 3-kinase alpha [3] = molecular target: T1, PI 3-kinase alpha; experiment: Cellular assay H1, p-Akt (S473) in Rat-1 cells, Surefire format; type: cell-based; details: non-asterisked data: version H1 (Surefire format), Rat-1 cells; read-out: Assay H PI3Kα IC50
Target sequence in this assay (P42336 whole entry): as the sequence (P42336 whole entry) above
Target sequence in this assay (Q63787 whole entry partner): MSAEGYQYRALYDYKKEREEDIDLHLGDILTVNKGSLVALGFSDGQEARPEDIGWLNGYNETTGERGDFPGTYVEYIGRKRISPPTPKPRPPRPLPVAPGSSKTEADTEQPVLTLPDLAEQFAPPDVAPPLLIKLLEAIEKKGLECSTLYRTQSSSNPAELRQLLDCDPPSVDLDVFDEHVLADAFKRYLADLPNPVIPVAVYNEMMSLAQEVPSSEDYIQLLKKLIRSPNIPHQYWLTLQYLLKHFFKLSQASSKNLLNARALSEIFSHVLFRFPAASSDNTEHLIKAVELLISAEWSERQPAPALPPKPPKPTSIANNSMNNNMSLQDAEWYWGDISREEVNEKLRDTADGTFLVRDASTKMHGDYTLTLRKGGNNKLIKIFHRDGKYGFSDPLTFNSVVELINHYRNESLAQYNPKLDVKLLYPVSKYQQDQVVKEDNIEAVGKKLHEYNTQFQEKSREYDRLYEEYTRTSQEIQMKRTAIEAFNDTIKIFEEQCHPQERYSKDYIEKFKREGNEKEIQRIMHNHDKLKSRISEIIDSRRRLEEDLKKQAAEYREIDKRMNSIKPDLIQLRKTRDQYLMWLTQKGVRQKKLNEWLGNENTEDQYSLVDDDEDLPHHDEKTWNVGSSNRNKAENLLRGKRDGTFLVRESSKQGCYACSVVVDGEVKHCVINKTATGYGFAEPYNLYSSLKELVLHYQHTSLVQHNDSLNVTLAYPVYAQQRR

PI 3-kinase beta [4] = molecular target: T2, PI 3-kinase beta; experiment: Cellular assay I1, p-Akt (S473) in Rat-1 cells, Surefire format; type: cell-based; details: non-asterisked data: version I1 (Surefire format), Rat-1 cells; read-out: Assay I PI3Kβ IC50
Target sequence in this assay (P42338 whole entry): as the sequence (P42338 whole entry) above
Target sequence in this assay (Q63787 whole entry partner): as the sequence (Q63787 whole entry partner) above

PI 3-kinase delta [5] = molecular target: T3, PI 3-kinase delta (Homo sapiens, UniProt O00329); experiment: Cellular assay J1, p-Akt (S473) in Rat-1 cells, Surefire format; type: cell-based; details: non-asterisked data: version J1 (Surefire format), Rat-1 cells; read-out: Assay J PI3Kδ IC50
[6] = system: IL-8-induced neutrophil shape change in human whole blood; experiment: Whole blood neutrophil shape change assay (L); type: cell-based; details: IL-8, human whole blood, read-out: Assay L WBSC IC50
PI 3-kinase delta [7] = molecular target: T3, PI 3-kinase delta; experiment: TR-FRET Adapta assay, assay F; details: read-out: Assay F PI3Kδ IC50
[8] = Microsomal clearance assay (M); details: intrinsic clearance in rat liver microsomes
Protocol: The experiments were performed in 96-well glass plates at 37° C. on an automated Tecan EVO platform. Test compounds at a concentration of 10 mM in pure DMSO were diluted 1:1000 in water to 10 μM. […] Reactions were initiated by the addition of 150 μL of a cofactor solution containing 2 mM NADPH.

| SMILES | IC50 (PI 3-kinase alpha [1]) [nM] | IC50 (PI 3-kinase beta [2]) [nM] | IC50 (Vps34) [nM] | IC50 (PI 4-kinase beta) [nM] | IC50 (PI 3-kinase gamma) [nM] | IC50 (mTOR) [nM] | IC50 (PI 3-kinase alpha [3]) [nM] | IC50 (PI 3-kinase beta [4]) [nM] | IC50 (PI 3-kinase delta [5]) [nM] | IC50 ([6]; Homo sapiens, Neutrophil) [nM] | IC50 (PI 3-kinase delta [7]) [nM] | Assay M RLM CI(int) [8] [µL/min/mg] | IC50 [6] [nM] |
| --- | --- | --- | --- | --- | --- | --- | --- | --- | --- | --- | --- | --- | --- |
| Cc1ccc(S(=O)(=O)NCCC(C)(C)O)cc1-c1cnc(N)c(-c2nc(C3CC3)no2)n1 [Example 143, 3-(5-Amino-6-(3-cyclopropyl-1,2,4-oxadiazol-5-yl)pyrazin-2-yl)-N-(3-hydroxy-3-methylbutyl)-4-methylbenzenesulfonamide] |  |  | > 9100 | > 9100 |  | 2190 | 2350 | 6030 | 1010 | 1700 |  | 134 |  |
| Cc1ccc(S(=O)(=O)NC2CC3(CC(O)C3)C2)cc1-c1cnc(N)c(-c2cn(C)nc2C)n1 (single isomer, unassigned) [Example 9b, (R)-3-[5-Amino-6-(1,3-dimethyl-1H-pyrazol-4-yl)-pyrazin-2-yl]-N-(6-hydroxy-spiro[3.3]hept-2-yl)-4-methyl-benzenesulfonamide or (S)-3-[5-Amino-6-(1,3-dimethyl-1H-pyrazol-4-yl)-pyrazin-2-yl]-N-(6-hydroxy-spiro[3.3]hept-2-yl)-4-methyl-benzenesulfonamide] |  | 1200 | > 10000 |  | 12 | > 10000 |  | > 10000 | 7640 |  | 240 | 27 | 335 |
| Cc1ccc(S(=O)(=O)NC[C@H]2C[C@@H](O)C2)cc1-c1cnc(N)c(-c2nc(C3CC3)no2)n1 [Example 94, 3-(5-Amino-6-(3-cyclopropyl-1,2,4-oxadiazol-5-yl)pyrazin-2-yl)-N-(((1s,3s)-3-hydroxycyclobutyl)methyl)-4-methylbenzenesulfonamide] | 1700 | > 9100 | > 9100 | > 9100 | 14 | 8900 | 2980 | 8960 | 2090 | 3780 | 570 |  |  |

Now from value to compound, other results behind:

| IC50 (PI 3-kinase alpha [1]) [nM] | IC50 (PI 3-kinase beta [2]) [nM] | IC50 (Vps34) [nM] | IC50 (PI 4-kinase beta) [nM] | IC50 (PI 3-kinase gamma) [nM] | IC50 (mTOR) [nM] | IC50 (PI 3-kinase alpha [3]) [nM] | IC50 (PI 3-kinase beta [4]) [nM] | IC50 (PI 3-kinase delta [5]) [nM] | IC50 ([6]; Homo sapiens, Neutrophil) [nM] | IC50 (PI 3-kinase delta [7]) [nM] | Assay M RLM CI(int) [8] [µL/min/mg] | SMILES | IC50 [6] [nM] |
| --- | --- | --- | --- | --- | --- | --- | --- | --- | --- | --- | --- | --- | --- |
| 420 | 1200 | > 10000 | > 10000 | 73 | 7400 | 9610 | 3560 | 6000 | 715 | 1400 | 25 | Cc1ccc(S(=O)(=O)NCC2(C(N)=O)CC2)cc1-c1cnc(N)c(-n2cncn2)n1 [Example 127.56] |  |
| 910 | 5290 | > 9100 | > 9100 | 105 | 6020 | 8470 |  | 6420 | 801 | 410 |  | Cc1ccc(S(=O)(=O)N[C@H]2CC[C@H](O)CC2)cc1-c1cnc(N)c(-c2cncnc2)n1 [Example 59, Trans-3-(5-Amino-6-(pyrimidin-5-yl)pyrazin-2-yl)-N-(-4-hydroxycyclohexyl)-4-methylbenzenesulfonamide] |  |
| 440 | 3000 | > 10000 | 8600 | 28 |  | 2610 | > 10000 | 1900 | 935 | 690 | <3.4 | Cc1ccc(S(=O)(=O)NCC(C)(C)O)cc1-c1cnc(N)c(-n2cnc(C3CC3)n2)n1 [Example 109, 3-(5-Amino-6-(3-cyclopropyl-1H-1,2,4-triazol-1-yl)pyrazin-2-yl)-N-(2-hydroxy-2-methylpropyl)-4-methyl benzenesulfonamide] |  |
